From patent publication US12514266B2, “Composition containing quercetagetin” (Chenguang Biotech Group Co., Ltd., priority 2020, dated 2026)

What was measured:
[1] = Determination of hydroxyl radical scavenging ability (salicylic acid method); format: biochemical; details: 37° C., 15 min, 510 nm
Description: (§1) Each of the composition of Examples 9-17, as well as single-component quercetagetin, 6-hydroxykaempferol, patuletin was taken, and the detection of DPPH and hydroxyl radical scavenging ability was performed. The specific test methods are as follows.
[…], 6-hydroxykaempferol, patuletin, and compositions 9-17 were used to prepare sample solutions with concentrations of 100, 150, 200, 250, 300 μg/ml in absolute ethanol. 9 mmol/L salicylic acid-ethanol solution, 9 mmol/L FeSO4 solution and 8.8 mmol/L H2O2 solution were prepared. Then, different samples were added according to the order in the following table, and placed in a water bath at 37° C. for 15 min, and the absorbance at 510 nm was measured.

[2] = Antioxidant effect in fish oil powder (peroxide value); details: 40° C., 28 days; for Peroxide value of fish oil powder with an addition amount of 10 ppm: 10 ppm (based on active ingredients); for Peroxide value of fish oil powder with an addition amount of 100 ppm: 100 ppm (based on active ingredients)
Description: After the antioxidant and fish oil powder were evenly mixed, the resultants were placed in an incubator at 40° C., and samples were taken in 28 days to measure the peroxide value.

[3] = Determination of DPPH free radical scavenging ability; format: biochemical; details: absolute ethanol, 30° C., 30 min, 517 nm
Description: as §1
Quercetin, 6-hydroxykaempferol, patuletin, and compositions 9-17 were used to prepare sample solutions with concentrations of 1, 2, 3, 4, 5, and 6 μg/ml in absolute ethanol. Then, DPPH was prepared into a 2×10^−4 mol/L solution with absolute ethanol, and 2 mL of blank and sample solution were accurately absorbed and mixed with 2 mL of DPPH solution, respectively, the resultants were placed in a water bath at 30° C. in the dark for 30 min, and the absorbance A (blank) and Asample (sample) were measured at the wavelength of 517 nm.

[4] = Antioxidant effect in lipids: peroxide value of butter; details: 150 ppm
Description: 5 parts of chicken oil and butter were taken respectively, each of which is 100 grams. Each 3 groups of chicken oil experimental groups and butter experimental groups were set up, and the composition of Example 6 was added according to the addition amount of 4, 6 and 8 ppm respectively; each 1 group of chicken oil control group and butter control group were set up, and ethoxyquin was added in an addition amount of 150 ppm; each 1 group of chicken oil blank group and butter blank group were set up, without adding any additives. The additives in each group were mixed evenly with the lipid, placed in a constant temperature incubator at 40° C., and samples were taken at 0, 3, 7, 14, 21 and 28 days to determine their peroxide value.

Row | Hydroxyl radical scavenging ability (IC50 μg/ml), half clearance [1] [µg/mL] | DPPH (IC50 μg/ml), half clearance [3] [µg/mL] | SMILES | Peroxide value of fish oil powder with an addition amount of 10 ppm [2] [mmol/kg] | Peroxide value of fish oil powder with an addition amount of 100 ppm [2] [mmol/kg] | peroxide value of butter ([4]; Day 0, 40° C.) [mmol/kg] | peroxide value of butter ([4]; Day 3, 40° C.) [mmol/kg] | peroxide value of butter ([4]; Day 7, 40° C.) [mmol/kg] | peroxide value of butter ([4]; Day 14, 40° C.) [mmol/kg] | peroxide value of butter ([4]; Day 21, 40° C.) [mmol/kg] | peroxide value of butter ([4]; Day 28, 40° C.) [mmol/kg]
1 | 595 | 31.98 | COc1c(O)cc2oc(-c3ccc(O)c(O)c3)c(O)c(=O)c2c1O [Patuletin, patuletin] | 120 | 109 | – | – | – | – | – | –
2 | 500 | 23.62 | O=c1c(O)c(-c2ccc(O)cc2)oc2cc(O)c(O)c(O)c12 [6-hydroxykaempferol] | 142 | 121 | – | – | – | – | – | –
3 | – | – | CCOc1ccc2c(c1)C(C)=CC(C)(C)N2 [Ethoxyquin, ethoxyquin] | – | – | 1.41 ± 0.15 | 1.44 ± 0.142 | 1.62 ± 0.104 | 1.66 ± 0.075 | 1.82 ± 0.1 | 2.02 ± 0.197

Row | SMILES | Hydroxyl radical scavenging ability (IC50 μg/ml), half clearance [1] [µg/mL] | DPPH (IC50 μg/ml), half clearance [3] [µg/mL] | Peroxide value of fish oil powder with an addition amount of 10 ppm [2] [mmol/kg] | Peroxide value of fish oil powder with an addition amount of 100 ppm [2] [mmol/kg] | peroxide value of butter ([4]; Day 0, 40° C.) [mmol/kg] | peroxide value of butter ([4]; Day 3, 40° C.) [mmol/kg] | peroxide value of butter ([4]; Day 7, 40° C.) [mmol/kg] | peroxide value of butter ([4]; Day 14, 40° C.) [mmol/kg] | peroxide value of butter ([4]; Day 21, 40° C.) [mmol/kg] | peroxide value of butter ([4]; Day 28, 40° C.) [mmol/kg]
4 | O=c1c(O)c(-c2ccc(O)c(O)c2)oc2cc(O)c(O)c(O)c12 [Quercetagetin, 3,3,4,5,6,7-hexahydroxyflavone] | 412 | 14.82 | 76.5 | 57.3 | – | – | – | – | – | –
